Assay results published in patent US20250320194A1, “PHARMACEUTICALLY ACCEPTABLE SALT AND CRYSTAL FORM OF FUSED PYRIDINE RING DERIVATIVE AND PREPARATION METHOD THEREFOR” (Jiangsu Hengrui Pharmaceuticals Co., Ltd., priority 2021, published 2025).

Experiments:
[1] = Hygroscopicity of salt crystal forms (DVS, 25° C.); assay type: physicochemical; settings: for Hygroscopicity 0.0% RH-95.0% RH / Hygroscopicity 20.0% RH-80.0% RH: DVS, 25° C.; for Crystal form: after DVS
Experimental: The test adopts SMS DVS Advantage, at 25° C., with a humidity range of 0 to 95% and a step of 10%. The judgment standard is that the dM/dT of each gradient mass change is less than 0.002%, TMAX is 360 minutes, and the cycle is two times. • 5. Cation chromatography • Instrument model: DIONEX AQUION ion chromatograph, USA • Detection method: conductivity; separation column: IonPac CS16-CG16 • Eluent: MSA 20Mm • Flow rate: 1.0 ml/min • 6. Anion chromatography • Instrument model: DIONEX INTEGRION HPIC ion chromatograph, USA • Detection method: conductivity; separation column: DionexIonPac™-AS11-HC • Eluent: EGC-500-KOH • Flow rate: 1.5 ml/min
Using Surface Measurement Systems advantage, at 25° C., the humidity starts from 50%, the humidity range is 0% to 95%, the step is 10%. The judgment standard was that the dM/dT of each gradient mass change is less than 0.002%, TMAX360 min, and the cycle was two times. The hygroscopicity of different salt crystal forms of the compound of formula I was investigated respectively.

[2] = Long-term/accelerated stability; settings: for physical and chemical stability (conclusion): long-term accelerated stability conditions for 6 months
[3] = Stability under influencing factors (high temperature, high humidity, open, 30 days); settings: for physical and chemical stability (conclusion): 75% RH and 92.5% RH

CC(C)(C#Cc1nc(C(Cc2cc(F)cc(F)c2)NC(=O)Cn2nc(C(F)(F)F)c3c2C(F)(F)C2CC32)c(-c2ccc(Cl)c3c([N-]S(C)(=O)=O)nn(CC(F)(F)F)c23)c2c1CCC2)S(C)(=O)=O.[K+] (stereo not drawn) [Crystal form a of the potassium salt]
Deliquesce: Crystal form ([2]; 40° C., 75% RH)
8.77%: Hygroscopicity 0.0% RH-95.0% RH [1]
98.02%: Purity % ([3]; 75% RH, 30 days) | Purity % ([3]; 92.5% RH, 30 days)
Unchanged: Crystal form [1] | Crystal form ([3]; 40° C., 5 days) | Crystal form ([3]; 40° C., 10 days) | Crystal form ([3]; 40° C., 30 days) | Crystal form ([3]; 60° C., 5 days) | Crystal form ([3]; 60° C., 10 days) | Crystal form ([3]; 60° C., 30 days) | Crystal form ([3]; 75% RH, 5 days) | Crystal form ([3]; 75% RH, 10 days) | Crystal form ([3]; 75% RH, 30 days) | Crystal form ([3]; 92.5% RH, 5 days) | Crystal form ([3]; 92.5% RH, 10 days) | Crystal form ([3]; 92.5% RH, 30 days)
97.82%: Purity % ([3]; 60° C., 30 days)
White solid: Color, properties ([3]; 40° C., 5 days) | Color, properties ([3]; 40° C., 10 days) | Color, properties ([3]; 40° C., 30 days) | Color, properties ([3]; 60° C., 5 days) | Color, properties ([3]; 60° C., 10 days) | Color, properties ([3]; 60° C., 30 days) | Color, properties ([3]; 75% RH, 5 days) | Color, properties ([3]; 75% RH, 10 days) | Color, properties ([3]; 75% RH, 30 days) | Color, properties ([3]; 92.5% RH, 5 days) | Color, properties ([3]; 92.5% RH, 10 days) | Color, properties ([3]; 92.5% RH, 30 days) | Color, properties ([3]; Start, 0 days)
97.97%: Purity % ([3]; 40° C., 5 days)
97.96%: Purity % ([3]; 40° C., 30 days) | Purity % ([3]; 75% RH, 5 days) | Purity % ([3]; 92.5% RH, 5 days)
2.86%: Hygroscopicity 20.0% RH-80.0% RH [1]
98.04%: Purity % ([3]; 40° C., 10 days) | Purity % ([3]; 75% RH, 10 days) | Purity % ([3]; 92.5% RH, 10 days)
good physical and chemical stability: physical and chemical stability (conclusion) [2] | physical and chemical stability (conclusion) ([3]; 40° C., 60° C.)
98.01%: Purity % ([3]; 60° C., 5 days) | Purity % ([3]; 60° C., 10 days)
98.03%: Purity % ([3]; Start, 0 days)

CC(C)(C#Cc1nc(C(Cc2cc(F)cc(F)c2)NC(=O)Cn2nc(C(F)(F)F)c3c2C(F)(F)C2CC32)c(-c2ccc(Cl)c3c([N-]S(C)(=O)=O)nn(CC(F)(F)F)c23)c2c1CCC2)S(C)(=O)=O.[Na+] (stereo not drawn) [Crystal form II of the sodium salt]
97.83%: Purity % ([2]; 4° C., 1 month) | Purity % ([2]; 4° C., 2 months) | Purity % ([2]; 40° C., 75% RH, 3 months) | Purity % ([3]; 40° C., 10 days, listed as II-crystal form of the sodium salt)
White solid: Color, properties ([3]; 40° C., 5 days) | Color, properties ([3]; 40° C., 10 days) | Color, properties ([3]; 40° C., 30 days) | Color, properties ([3]; 60° C., 5 days) | Color, properties ([3]; 60° C., 10 days) | Color, properties ([3]; 60° C., 30 days) | Color, properties ([3]; 75% RH, 5 days) | Color, properties ([3]; 75% RH, 10 days) | Color, properties ([3]; 75% RH, 30 days) | Color, properties ([3]; 92.5% RH, 5 days) | Color, properties ([3]; 92.5% RH, 10 days) | Color, properties ([3]; 92.5% RH, 30 days) | Color, properties ([3]; Start, 0 days)
97.90%: Purity % ([3]; 60° C., 30 days, listed as II-crystal form of the sodium salt)
97.81%: Purity % ([2]; 40° C., 75% RH, 1 month)
97.80%: Purity % ([2]; 40° C., 75% RH, 2 months)
97.76%: Purity % ([2]; 4° C., Start) | Purity % ([2]; 25° C., 60% RH, Start) | Purity % ([2]; 40° C., 75% RH, 6 months) | Purity % ([2]; 40° C., 75% RH, Start) | Purity % ([3]; Start, 0 days)
97.85%: Purity % ([3]; 92.5% RH, 10 days, listed as II-crystal form of the sodium salt)
97.88%: Purity % ([3]; 40° C., 5 days, listed as II-crystal form of the sodium salt) | Purity % ([3]; 40° C., 30 days, listed as II-crystal form of the sodium salt) | Purity % ([3]; 60° C., 10 days, listed as II-crystal form of the sodium salt)
97.77%: Purity % ([2]; 4° C., 6 months)
11.61%: Hygroscopicity 20.0% RH-80.0% RH [1]
Unchanged: Crystal form [1] | Crystal form ([3]; 40° C., 5 days) | Crystal form ([3]; 40° C., 10 days) | Crystal form ([3]; 40° C., 30 days) | Crystal form ([3]; 60° C., 5 days) | Crystal form ([3]; 60° C., 10 days) | Crystal form ([3]; 60° C., 30 days) | Crystal form ([3]; 75% RH, 5 days) | Crystal form ([3]; 75% RH, 10 days) | Crystal form ([3]; 75% RH, 30 days) | Crystal form ([3]; 92.5% RH, 5 days) | Crystal form ([3]; 92.5% RH, 10 days) | Crystal form ([3]; 92.5% RH, 30 days)
97.82%: Purity % ([2]; 25° C., 60% RH, 1 month) | Purity % ([2]; 25° C., 60% RH, 2 months) | Purity % ([3]; 75% RH, 30 days, listed as II-crystal form of the sodium salt) | Purity % ([3]; 92.5% RH, 30 days, listed as II-crystal form of the sodium salt)
97.86%: Purity % ([2]; 25° C., 60% RH, 3 months) | Purity % ([3]; 60° C., 5 days, listed as II-crystal form of the sodium salt)
good physical and chemical stability: physical and chemical stability (conclusion) [2] | physical and chemical stability (conclusion) ([3]; 40° C., 60° C.)
34.16%: Hygroscopicity 0.0% RH-95.0% RH [1]
97.84%: Purity % ([3]; 75% RH, 5 days, listed as II-crystal form of the sodium salt) | Purity % ([3]; 75% RH, 10 days, listed as II-crystal form of the sodium salt) | Purity % ([3]; 92.5% RH, 5 days, listed as II-crystal form of the sodium salt)
97.79%: Purity % ([2]; 4° C., 3 months) | Purity % ([2]; 25° C., 60% RH, 6 months)
